Laboratory results published in patent US11278514B2, “Composition compromising dunnione as effective ingredient for prevention or alleviation of hair loss” (NADIANBIO LTD., priority 2018, dated 2022).

Tests used:
p53 = experiment: Acetylation of p53 in skin tissue (western blot), cyclophosphamide alopecia model; assay type: in vivo, mice; conditions: cyclophosphamide alone; day 18
Experimental: (§1) In the cyclophosphamide-induced alopecia mouse model of Example 2, expression level of Sirt1 protein and acetylation reaction of the target proteins thereof, NF-κB p65 and p53, were identified on the skin tissue obtained on day 18 after hair removal.
(§2) Specifically, 10 mg of the skin tissue obtained from the animal model prepared by the method in Example 2 was homogenized by addition of a lysis solution (RIPA lysis buffer). Then, centrifugation was performed at 14,000 rpm for 10 minutes. The protein concentration in the supernatant was quantified with a bovine serum albumin (BSA) standard solution. The skin tissue protein was used in an amount of 40 μg per test solution. First, the homogenized skin tissue was mixed with a sample solution (Bio-Rad, 161-0747) and inactivated at a temperature of 95° C. for 5 minutes. Thereafter, the protein was separated by a sodium dodecyl sulfate-polyacrylamide gel electrophoresis (SDS-PAGE) method, and then transferred to a nitrocellulose membrane. Treatment with anti-Sirt1 antibody (Abcam), anti-acetyl NF-κB p65 antibody and anti-acetyl p53 antibody (Cell Signaling Technologies), and anti-β-actin antibody (Santa Cruz Biotechnology) as primary antibodies were performed, and reaction was allowed to proceed. […]

Sirt1 = Sirt1 activity in skin tissue (fluorescent Sirt1 detection kit), cyclophosphamide alopecia model; assay type: in vivo, mice; conditions: cyclophosphamide alone; day 18
Experimental: In addition, the skin tissue obtained from the animal model prepared by the method in Example 2 was homogenized. The homogenized skin tissue was tested with the fluorescent Sirt1 detection kit (BML-AK555-0001) of Enzo Life Sciences International, Inc. according to the instruction manual, and then Sirt1 activity was analyzed. 40 μg of the homogenized skin tissue was mixed with a reaction solution (Fluor de Lys-Sirt1, NAD+, buffer solution (25 mM Tris-HCl (pH8.0), 137 mM NaCl, 2.7 mM […], 1 mM MgCl2, and 1 mg/mL BSA)), and reaction was allowed to proceed at a temperature of 37° C. for 1 hour. Then, additional reaction was allowed to proceed for 5 minutes under a condition in which a developer is added. In order to check the final Sirt1 activity, readings were measured for the reaction solution using the CytoFluor series 4000 fluorometer (PerSeptive Biosystems, Inc., USA) with the excitation wavelength set to 360 nm and the emission to 460 nm.

Sirt1 protein = experiment: Expression level of Sirt1 protein in skin tissue (western blot), cyclophosphamide alopecia model; assay type: in vivo, mice; conditions: cyclophosphamide alone; day 18
Experimental: as §1, §2

NQO1 knockout mice [1] = conditions: cyclophosphamide alone (150 mg/kg i.p.), until day 18
Experimental: (§3) The day, on which the NQO1 knockout mice were hair-removed according to Example 1, was set as day 0, and the animals were divided into the following experimental groups and used for experiments: normal group (Control, 4 animals) in which only PBS is intraperitoneally injected on day 9; cyclophosphamide group (CYP, 6 animals) in which cyclophosphamide (150 mg/kg) is intraperitoneally injected on day 9; combination-treated group (CYP+Dunnione, 6 animals) in which dunnione is orally administered on a daily basis starting from 3 days prior to treatment with cyclophosphamide; and dunnione alone-treated group (Dunnione, 4 animals) in which only dunnione (20 mg/kg) is administered (FIG. 1).

NQO1 knockout mice [2] = conditions: cyclophosphamide alone, day 18
Experimental: as §3
(§4) The day, on which the NQO1 knockout mice were hair-removed according to Example 1, was set as day 0, and the mice in each of the experimental groups described in Example 3 were sacrificed on day 18. Subsequently, the mouse dorsal skin was dissected parallel or perpendicular to the vertebral line, and removed. The removed skin was fixed with a Bouin's solution for 12 hours, subjected to dehydration, and embedded in paraffin. Then, the resulting product was prepared into 5-μm sections. The prepared sections were subjected to hematoxylin and eosin (H&E) staining, and histological changes in the skin in each experimental group were observed.

NF-κB p65 = experiment: Acetylation of NF-κB p65 in skin tissue (western blot), cyclophosphamide alopecia model; assay type: in vivo, mice; conditions: cyclophosphamide alone; day 18
Experimental: as §1, §2

patients = conditions: cancer patients; Batchelor D., Eur J Cancer Care, 2001; cited from earlier work
[3] = tested on: C57BL/6 mice having alopecia caused by cyclophosphamide; conditions: cyclophosphamide alone (150 mg/kg i.p.); day 18
Experimental: as §3, with “the” for “the NQO1 knockout”, “in” for “according to”, “groups:” for “experimental groups and used for experiments:”
as §4, with “the” for “the NQO1 knockout”, “in” for “according to”, “2” for “3”

NAD^+ = experiment: NAD+ and NADH concentrations and NAD+/NADH ratio in skin tissue, cyclophosphamide alopecia model; assay type: in vivo, mice; conditions: cyclophosphamide alone vs normal group; day 18
Experimental: Specifically, in order to quantify the NAD^+ and NADH concentrations in the skin tissue obtained from the animal model prepared by the method in Example 2, the skin tissue was tested with the analysis kit (E2ND-100) of BioAssay Systems according to the instruction manual, and then the NAD^+/NADH ratio was analyzed. First, 10 mg of skin tissue was collected from the animal model. Then, 100 μl of extraction solution for NAD^+ or NADH was added to the skin tissue and homogenized. Then, the homogenized skin tissue was subjected to heat treatment at 60° C. for 5 minutes. Neutralization was performed by addition of the same volume of the extraction solution, and then centrifugation was performed at 14,000 rpm for 5 minutes to obtain the supernatant. Then, a developing reagent was added to the supernatant. The NAD^+ and NADH concentrations were determined from the absorbance measured at a wavelength of 565 nm, and the NAD^+/NADH ratio was analyzed.

## O=P1(N(CCCl)CCCl)NCCCO1 (stereo not shown) [cyclophosphamide, reference compound]
p53
  acetylation of p53 in skin tissue: increased
Sirt1
  Sirt1 activity in skin tissue: decreased
Sirt1 protein
  expression level of Sirt1 protein in skin tissue: decreased
NQO1 knockout mice [1]
  hair growth, visual observation of skin: hair hardly grew until day 18 after hair removal
NQO1 knockout mice [2]
  development of hair follicles and inner root sheaths (histology): the hair follicles have poorly developed or the inner root sheaths have insufficiently developed
NF-κB p65
  acetylation of NF-κB p65 in skin tissue: increased
patients
  patients in whom the agent causes CIA: ≥ 60%
[3]
  development of hair follicles and inner root sheaths (histology): the hair follicles have poorly developed or the inner root sheaths have insufficiently developed
NAD^+
  NAD^+ concentration in skin tissue: decreased
  NAD^+/NADH ratio in skin tissue: decreased
